Patent publication US20220204540A1, “ESTERS OF NON- AROMATIC HETEROCYCLIC COMPOUNDS HAVING A NEMATOCIDAL ACTIVITY, THEIR AGRONOMIC COMPOSITIONS AND USE THEREOF” (ISAGRO S.p.A., priority 2019, published 2022)

System: Meloidogyne sp.
Test: Nematocidal activity against Meloidogyne sp. on potted cucumber/tomato plants in greenhouse (soil treatment)
Format: in vivo
Conditions: for GALL INDEX (scale 0-10) / FRESH WEIGHT OF PLANT: cucumber cv Chinese Long; for GALL INDEX (scale 0-10): dose applied 2 kg/hectare (2000 g/hectare), survey 30 days after transplantation, Bridge-Page scale, 0 = 0% of root affected, 10 = 100% infested root; for FRESH WEIGHT OF PLANT: dose applied 2 kg/hectare, healthy blank 23 g, infested blank 3.5 g; for FRESH WEIGHT OF PLANT / effectiveness with respect to the reference products (CR1, CR2), in words: 30 days after transplantation; for effectiveness with respect to the reference products (CR1, CR2), in words: Table 6, cucumber, 2 kg/hectare
Experimental: sDetermination of the Nematocidal Activity Against Meloidogyne sp.
The tests aimed at testing the nematicidal activity of the product under examination were carried out using inoculae taken from a farming of Meloidogyne sp. maintained on potted tomato and cucumber plants and grown in greenhouses.
To carry out the experiments, portions of roots having a good number of galls and soil were taken from the infested pots, in which larvae were present starting from the second stage of age.
New pots having a diameter of 15 cm were half filled with sterile soil. The portions of infested roots, previously cleaned, were placed on the same in order to be able to correctly assess the degree of infestation and ensure that each pot contains the same nematic charge. 200-300 g of infested soil were subsequently added, then covered with a thin layer of sterile soil.
The treatment was carried out by pouring 100 ml of solution on the surface of the soil, in which the product to be tested was dissolved.
Tomato or cucumber seedlings at the stage of two or three true leaves were transplanted in the pots thus prepared, one or seven days after application. Different cultivars of tomato or cucumber were used, having a different sensitivity to the parasite and different growth times. In particular, a variety of ornamental tomatoes (cv Microtom), whose seedlings are small in size and are able to reach the ripeness of the fruit in pots and under greenhouse conditions in about two months, was used for assessing the final production.
The containment capacity of the parasite was detected, 30 and 60 days after transplantation, considering the development of the root system (where 100% is the development reached by the healthy comparative root), the fresh weight of the plants treated expressed in grams, and the presence of galls on the roots. The latter was estimated using the infestation scale proposed by Bridge-Page, according to which the value zero corresponds to 0% of the root affected and the value 10 corresponds to 100% of infested root.
Table 6 indicates the results relating to the effectiveness on cucumbers, cv Chinese Long, treating with Compounds Nr. 23, 620, 1, 13, 5, 15, 16, 624 and 625 included in general formula (I) and the reference compounds CR1=Fluensulfone and CR2, described in JP 2000038379, instead of the compound having general formula (I), at a dose of 2000 g/hectare and effecting the survey 30 days after transplantation.

Molecule | GALL INDEX (scale 0-10) | FRESH WEIGHT OF PLANT | effectiveness with respect to the reference products (CR1, CR2), in words
O=C(OCCC(F)=C(F)F)c1cccnc1 [CR2, pyridyl-3-carboxylate of 3,4,4-trifluoro-3-butenyl, reference compound] | 2.9 | 17.5 g | 
CC(=O)N1CCC[C@H]1C(=O)OCCC(F)=C(F)F [Compound 624, N-acetyl-L-proline 3,4,4-trifluorobut-3-en-1-yl ester] | 1.5 | 21 g | comparable or greater effectiveness
O=C(OCCC(F)=C(F)F)[C@@H]1CCCN1C(=O)C(F)(F)F [Compound 625, N-trifluoroacetyl-L-proline 3,4,4-triflluorobut-3-en-1-yl ester] | 2.5 | 22 g | comparable or greater effectiveness
N-acetyl-1,3-thiadiazolidine-4-carboxylate of 3,4,4-trifluoro-3-butenyl [Compound 23] | 2 | 23 g | comparable or greater effectiveness
CC(=O)N1C(C(=O)OCCC(F)=C(F)F)COC1(C)C(F)(F)F (stereo not shown) [Compound 16, (N-acetyl-2-trifluoromethyl-2-methyl)-1,3-oxazolidine-4-carboxylate of 3,4,4-trifluoro-3-butenyl] | 2.9 | 18 g | comparable or greater effectiveness
O=S(=O)(CCC(F)=C(F)F)c1ncc(Cl)s1 [CR1, 5-chloro-2-(3,4,4-trifluoro-3-butenylsulfonyl)-thiazole, reference compound] | 2 | 5.5 g | 
